Laboratory results: patent US4764461A, “Tellurium and selenium compounds for the induction of in vivo and in vitro production of cytokines” (priority 1987, dated 1988)

What was measured:
[1] = system: IL-2 receptors; human mononuclear cells; test: Detection of IL-2 receptor sites with fluoresceinated antibody (Example 21); assay type: cell-based; settings: 1 μg/ml, 24 h; control 2%
Experimental: This example provides an assay to detect the presence of receptor sites for IL-2. […] The cells were washed twice with PBS and then incubated with a specific fluoresceinated antibody against IL-2 receptors as described in Uchiyama et al, J. Immunol.

[2] = system: IL-2; spleen cells; test: In vitro IL-2 secretion of mouse spleen cells, CTLD assay (Example 17); assay type: cell-based, Balb/c mice; settings: IL-2 activity, 24 h
Experimental: The compounds listed below were tested in vitro at various concentrations that ranged from 10 μg/ml cells to 1×10^-6 μg/ml of cell mixtures. Cells were obtained from spleens of male Balb/c mice 6-8 weeks of age. Spleens were pushed through a stainless steel 60 mesh strainer to separate cells.

[3] = system: IL-2 receptors of human mononuclear cells; test: Induction of IL-2 receptors of human mononuclear cells, proliferation by 3HT uptake (Example 18); assay type: cell-based
Experimental: Human MNC were brought to a concentration of 10^6 cells/ml. RPMI+10% FCS. Aliquots of 0.2 ml. were placed in duplicate wells of microdishes and plates were incubated at 37 C for 24 hrs. […] Plates were further incubated for 48 hrs. and labelled with 3H thymidine 24 hrs. before harvesting.
The proliferation was measured by ^3 HT uptake as described by Gillis et al, J. Immunol. […] The results are expressed in counts per minute.

[4] = system: human mononuclear cells; test: Proliferation of human mononuclear cells (Example 19); assay type: cell-based; settings: at any concentration that was tested
Experimental: Human mononuclear cells were obtained by layering heparinized blood over a Ficoll/Hypaque gradient. The mononuclear cells were resuspended in enriched RPMI, rinsed three times and brought to a concentrations of 5×10^5 cells/ml encriched RPMI. […] Aliquots of 0.2 ml of each sample were placed in wells of microplates (triplicates). Microplates were incubated for 72 hours at 37° C. after which they were labelled with H^3 methyl-thymidine 1 uCi/well for an additional 24 hours. Cells were then harvested with a cell harvester.

O=[Te]=O [TeO2, Tellurium dioxide]
cells positive for IL-2 receptors [1]: 5%
Spleen Cells (cpm) ([2]; control 2,550): 17,055 cpm
Spleen Cells, percent increase ([2]; control 2,550 cpm): 508%
proliferation (3HT uptake), counts per minute ([3]; Test A, 1 μg/ml, control 2338): 1563 counts per minute
proliferation (3HT uptake), counts per minute ([3]; Test A, 1 × 10^-2 μg/ml, control 2338): 3108 counts per minute
proliferation (3HT uptake), counts per minute ([3]; Test A, 1 × 10^-3 μg/ml, control 2338): 2867 counts per minute
proliferation (3HT uptake), counts per minute ([3]; Test A, 1 × 10^-4 μg/ml, control 2338): 5540 counts per minute
proliferation (3HT uptake), counts per minute ([3]; Test A, 1 × 10^-5 μg/ml, control 2338): 3442 counts per minute
proliferation (3HT uptake), counts per minute ([3]; Test A, 5 × 10^-1 μg/ml, control 2338): 4667 counts per minute
proliferation (3HT uptake), counts per minute ([3]; Test A, 5 × 10^-2 μg/ml, control 2338): 2515 counts per minute
proliferation (3HT uptake), counts per minute ([3]; Test A, 7 × 10^-1 μg/ml, control 2338): 2475 counts per minute
proliferation (3HT uptake), counts per minute ([3]; Test B, 1 μg/ml, control 5573): 3275 counts per minute
proliferation (3HT uptake), counts per minute ([3]; Test B, 1 × 10^-2 μg/ml, control 5573): 3077 counts per minute
proliferation (3HT uptake), counts per minute ([3]; Test B, 1 × 10^-3 μg/ml, control 5573): 3800 counts per minute
proliferation (3HT uptake), counts per minute ([3]; Test B, 1 × 10^-4 μg/ml, control 5573): 2925 counts per minute
proliferation (3HT uptake), counts per minute ([3]; Test B, 1 × 10^-5 μg/ml, control 5573): 3645 counts per minute
proliferation (3HT uptake), counts per minute ([3]; Test B, 5 × 10^-1 μg/ml, control 5573): 5405 counts per minute
proliferation (3HT uptake), counts per minute ([3]; Test B, 5 × 10^-2 μg/ml, control 5573): 4280 counts per minute
proliferation (3HT uptake), counts per minute ([3]; Test B, 7 × 10^-1 μg/ml, control 5573): 4302 counts per minute
effect on proliferation [4]: No significant effect
